Reference: patent US20120264685A1 (priority 2009, published 2012)
Where a SMILES comes first, the peptide text is derived from it. [ ]: non-standard residue; d: D form. ξ: configuration not given here. ξαMeBip(2'-Et,4'-OMe) = CCc1cc(OC)ccc1-c1ccc(CC(C)(N)C(=O)O)cc1; ξBip(2'-Et-4'-OMe) = CCc1cc(OC)ccc1-c1ccc(CC(N)C(=O)O)cc1; ξαMe(hhPhe) = CC(N)(CCCc1ccccc1)C(=O)O; ξαMePhe(2-F) = CC(N)(Cc1ccccc1F)C(=O)O; ξαMeD = CC(N)(CC(=O)O)C(=O)O; ξαMeP = CC1(C(=O)O)CCCN1; ξαMeS = CC(N)(CO)C(=O)O

Experiments:
[1] = test system: RIN5F (Rat Insulinoma) cells; assay: In vitro glucose-dependent insulin secretion (RIN5F cell assay); assay type: cell-based; conditions: 16.7-mM glucose load, n = 3, mean ± S.D.
In short: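 Rat RIN5F cells were preincubated 40 min in Krebs-Ringer buffer with 1.1 mM glucose and 0.5% BSA, pH 7.4, then exposed to test peptidomimetics for 30 min at 37 °C with 16.7 mM or 0 mM glucose. Supernatant insulin was measured by rat insulin ELISA and normalised to total protein (BCA), as pg/μg.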

DPP IV enzyme = DPP IV enzyme (Homo sapiens, UniProt P27487); assay: Stability against DPP IV enzyme; assay type: in vitro ADME; conditions: 2 μM, 37° C.; for half-life: read-out: half-life (t1/2) with DPP-IV enzyme
Sequence of DPP IV enzyme (P27487 whole entry, species assumed, the tested form may be a part): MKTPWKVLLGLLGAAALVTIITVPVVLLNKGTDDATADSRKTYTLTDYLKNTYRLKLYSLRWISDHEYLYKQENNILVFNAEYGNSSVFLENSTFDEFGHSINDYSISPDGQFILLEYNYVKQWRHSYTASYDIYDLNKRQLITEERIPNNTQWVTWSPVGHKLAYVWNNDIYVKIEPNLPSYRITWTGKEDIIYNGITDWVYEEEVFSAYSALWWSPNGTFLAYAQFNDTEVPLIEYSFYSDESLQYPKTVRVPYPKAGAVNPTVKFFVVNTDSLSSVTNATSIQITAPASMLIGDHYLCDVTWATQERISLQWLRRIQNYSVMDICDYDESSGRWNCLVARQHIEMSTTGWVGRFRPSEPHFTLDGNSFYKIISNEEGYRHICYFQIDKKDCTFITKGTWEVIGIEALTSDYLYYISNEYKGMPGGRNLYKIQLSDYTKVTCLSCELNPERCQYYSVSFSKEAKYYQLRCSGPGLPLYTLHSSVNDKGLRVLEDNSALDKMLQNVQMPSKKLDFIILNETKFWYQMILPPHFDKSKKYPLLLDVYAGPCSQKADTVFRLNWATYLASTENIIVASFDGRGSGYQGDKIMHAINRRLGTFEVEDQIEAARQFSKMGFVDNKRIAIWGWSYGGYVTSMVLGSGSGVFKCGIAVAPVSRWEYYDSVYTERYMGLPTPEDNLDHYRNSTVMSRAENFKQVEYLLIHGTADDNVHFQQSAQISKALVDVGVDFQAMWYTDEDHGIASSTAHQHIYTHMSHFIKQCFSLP
Protocol: (§1) Different peptidomimetics (final concentration 2 μM) were incubated with either DPP IV (1:25 mU) or pooled human plasma (7.5 μL) or simulated gastric fluid (pH 1.5; composition HCl, NaCl and Pepsin) or simulated intestinal fluid (pH 7.5) or human liver microsomes, for 0, 2, 4, 6, 12 and 24 h (37° C.; 50 mM triethanolamine-HCl buffer; pH 7.8). […] Reactions were terminated by the addition of TFA/H2O ([…], 10% (v/v)). The reaction products were then applied to a Vydac C18 analytical column (4.6×250-mm) and the major degradation fragment separated from intact peptidomimetic. The column was equilibrated with TFA/H20, at a flow rate of 1 mL/min. Using 0.1% (v/v) TFA in 70% acetonitrile/H2O, the concentration of acetonitrile in the eluting solvent was raised from 0% to 28% over 10 min and from 28% to 42% over 30 min. The absorbance was monitored at 206 nm using UV detector and peaks were collected manually prior to ESI-MS analysis. Area under the curve was measured for test peptidomimetics and their metabolites and percentage degradation were calculated at each time point over a period of 24 h.

[2] = Stability in human plasma; assay type: in vitro ADME; conditions: 2 μM, 37° C.; for half-life: human, plasma, read-out: half-life (t1/2) in human plasma
Protocol: as §1

[3] = Stability in simulated gastric fluid; assay type: in vitro ADME; conditions: 2 μM, 37° C.; for % degradation in 24 h when incubated with simulated gastric fluid: pH 1.5, 24 h; for half-life: simulated gi fluid, pH 1.5, read-out: half-life (t1/2) in simulated gastric fluid
Protocol: (§2) Reactions were terminated by the addition of TFA/H2O ([…], 10% (v/v)). […] The column was equilibrated with TFA/H20, at a flow rate of 1 mL/min. […] The absorbance was monitored at 206 nm using UV detector and peaks were collected manually prior to ESI-MS analysis.

[4] = Stability in simulated intestinal fluid; assay type: in vitro ADME; conditions: 2 μM, 37° C.; for % degradation in 24 h when incubated with simulated intestinal fluid: pH 7.5, 24 h; for half-life: simulated gi fluid, pH 7.5, read-out: half-life (t1/2) in simulated intestinal fluid
Protocol: as §2

[5] = Stability in liver microsomes; assay type: in vitro ADME, human; conditions: 2 μM, 37° C.; for half-life: human, microsomes, read-out: half-life (t1/2) in liver microsomes
Protocol: as §2

Row | % degradation in 24 h when incubated with DPP-IV enzyme (DPP IV enzyme) [%] | half-life (DPP IV enzyme) [min] | % degradation in 24 h when incubated with human plasma [2] [%] | half-life [2] [min] | % degradation in 24 h when incubated with simulated gastric fluid [3] [%] | half-life [3] [min] | % degradation in 24 h when incubated with simulated intestinal fluid [4] [%] | half-life [4] [min] | % degradation in 24 h when incubated with liver microsomes [5] [%] | half-life [5] [min] | half-life (t1/2) in liver microsomes [5] | half-life (t1/2) in human plasma [2] | SMILES | Insulin secretion ([1]; 0.1 nM test compd.) [pg/µg/h] | Insulin secretion ([1]; 1 nM test compd.) [pg/µg/h] | Insulin secretion ([1]; 10 nM test compd.) [pg/µg/h]
1 | 00 | > 1440 | 00 | > 1440 | 55 | 240 | 00 | > 1440 | 84 | 120 | – | – | CCc1cc(OC)ccc1-c1ccc(CC(NC(=O)[C@H](CC(=O)O)NC(=O)[C@H](CO)NC(=O)[C@@H](NC(=O)C(C)(Cc2ccccc2F)NC(=O)[C@@H](NC(=O)CNC(=O)[C@H](CCC(N)=O)NC(=O)[C@H](C)NC(=O)[C@H](Cc2c[nH]cn2)NC(=O)[C@@H](N)C(C)C)[C@@H](C)O)[C@@H](C)O)C(=O)NC(C)(CCCc2ccccc2)C(N)=O)cc1 (some centres unmarked) [compound 92] (H-VHAQGT[ξαMePhe(2-F)]TSD[ξBip(2'-Et-4'-OMe)][ξαMe(hhPhe)]-NH2) | 16.9 ± 0.22 | 22.8 ± 0.31 | 36.7 ± 0.34
2 | 00 | > 1440 | 00 | > 1440 | 00 | > 1440 | 00 | > 1440 | 33 | – | (5) h | – | CCc1cc(OC)ccc1-c1ccc(CC(NC(=O)C(C)(CC(=O)O)NC(=O)C(C)(CO)NC(=O)[C@@H](NC(=O)[C@H](Cc2ccccc2)NC(=O)[C@@H](NC(=O)CNC(=O)[C@H](CCC(N)=O)NC(=O)[C@H](C)NC(=O)[C@H](Cc2c[nH]cn2)NC(=O)[C@@H](N)C(C)C)[C@@H](C)O)[C@@H](C)O)C(=O)NC(C)(CCCc2ccccc2)C(N)=O)cc1 (some centres unmarked) [compound 108] (H-VHAQGTFT[ξαMeS][ξαMeD][ξBip(2'-Et-4'-OMe)][ξαMe(hhPhe)]-NH2) | 11.9 ± 0.17 | 14.2 ± 0.13 | 27.6 ± 0.16
3 | 70 | – | 71 | – | 100 | 30 | 100 | 30 | 100 | 30 | – | (9) h | CCc1cc(OC)ccc1-c1ccc(CC(NC(=O)C(C)(CC(=O)O)NC(=O)C(C)(CO)NC(=O)[C@@H](NC(=O)[C@H](Cc2ccccc2)NC(=O)[C@@H](NC(=O)CNC(=O)[C@H](CCC(=O)O)NC(=O)[C@H](C)NC(=O)[C@H](Cc2c[nH]cn2)NC(=O)[C@@H](N)C(C)C)[C@@H](C)O)[C@@H](C)O)C(=O)NC(C)(CCCc2ccccc2)C(N)=O)cc1 (some centres unmarked) [compound 112] (H-VHAEGTFT[ξαMeS][ξαMeD][ξBip(2'-Et-4'-OMe)][ξαMe(hhPhe)]-NH2) | 12.3 ± 0.33 | 14.8 ± 0.16 | 28.1 ± 0.22
4 | 86 | – | 70 | – | 100 | 30 | 100 | 30 | 100 | 30 | – | (9) h | CCc1cc(OC)ccc1-c1ccc(CC(C)(NC(=O)[C@H](CC(=O)O)NC(=O)[C@H](CO)NC(=O)[C@@H](NC(=O)[C@H](Cc2ccccc2)NC(=O)[C@@H](NC(=O)CNC(=O)[C@H](CCC(=O)O)NC(=O)C2(C)CCCN2C(=O)[C@H](Cc2c[nH]cn2)NC(=O)[C@@H](N)C(C)C)[C@@H](C)O)[C@@H](C)O)C(=O)NC(C)(CCCc2ccccc2)C(N)=O)cc1 (some centres unmarked) [compound 140] (H-VH[ξαMeP]EGTFTSD[ξαMeBip(2'-Et,4'-OMe)][ξαMe(hhPhe)]-NH2) | 16.6 ± 0.41 | 22.9 ± 0.32 | 36.7 ± 0.11
